Data published in ChEMBL document CHEMBL2396517, “Design, synthesis and biological evaluation of novel aminothiazoles as antiviral compounds acting against human rhinovirus” (Bioorg Med Chem Lett, 2013).
Blank lines part the entries; values can stand above or below the compound they belong to.

How the values were obtained:
[1] = physchem; conditions: buffer, pH 7.4
[2] = Permeability across apical to basolateral side in human Caco2 cells; type: ADME, cell-based; conditions: Caco-2, read-out: permeability
[3] = AUC in rat at 5 mg/kg, po and 2 mg/kg, iv; type: ADME, organism-based; conditions: plasma
[4] = Cmax in rat at 5 mg/kg, po and 2 mg/kg, iv; type: ADME, organism-based; conditions: in vivo
[5] = (§1) Oral bioavailability in rat at 5 mg/kg; type: ADME, organism-based; conditions: in vivo
[6] = Half life in rat at 5 mg/kg, po and 2 mg/kg, iv; type: ADME, organism-based; conditions: in vivo
[7] = Total clearance in rat at 5 mg/kg, po and 2 mg/kg, iv; type: ADME, organism-based; conditions: in vivo
[8] = system: Rattus norvegicus; test: as §1; type: ADME, organism-based; conditions: in vivo
[9] = Cmax in CD1 mouse at 250 mg/kg; type: ADME, organism-based; design: dose 250 mg/kg; conditions: in vivo
[10] = Cmax in CD1 mouse at 50 mg/kg; type: ADME, organism-based; design: dose 50 mg/kg; conditions: in vivo
[11] = Total clearance in CD1 mouse at 2 mg/kg, iv; type: ADME, organism-based; design: dose 2 mg/kg, route intravenous; conditions: in vivo
[12] = AUC in CD1 mouse at 50 mg/kg; type: ADME, organism-based; design: dose 50 mg/kg; conditions: plasma
[13] = AUC in CD1 mouse at 250 mg/kg; type: ADME, organism-based; design: dose 250 mg/kg; conditions: plasma
[14] = AUC in CD1 mouse at 5 mg/kg; type: ADME, organism-based; design: dose 5 mg/kg; conditions: plasma
[15] = Cmax in CD1 mouse at 5 mg/kg; type: ADME, organism-based; design: dose 5 mg/kg; conditions: in vivo

SMILES: Cc1nc(NC(=O)CN2C(=O)OC[C@H]2C(C)C)sc1-c1ccc(N)cc1
logD [1]: 2.5 | Papp A→B [2]: 19 ×10⁻⁶ cm/s

SMILES: Cc1ccc(C(=O)N(CC(=O)Nc2ncc(-c3ccc(N)cc3)s2)Cc2ccccc2)cn1
Papp A→B [2]: 17 ×10⁻⁶ cm/s

SMILES: CO[C@H]1CC[C@@H](C(=O)Nc2nc(C)c(-c3ccc(N)nc3)s2)CC1
AUC [3]: 2.65 µM·h | logD [1]: 2.8 | Cmax [4]: 1.5 µM | Papp A→B [2]: 18 ×10⁻⁶ cm/s | bioavailability [5]: 77% | half-life [6]: 0.38 h | clearance [7]: 70 mL/min/kg

SMILES: Cc1nc(NC(=O)[C@H]2CC[C@@H](C(F)(F)F)CC2)sc1-c1ccc(N)nc1
logD [1]: 3.8 | Papp A→B [2]: 22 ×10⁻⁶ cm/s

SMILES: Cc1nc(NC(=O)C2(C)CCCCC2)sc1-c1ccc(N)nc1
logD [1]: 3.8 | Papp A→B [2]: 20 ×10⁻⁶ cm/s

SMILES: Cc1nc(NC(=O)C(C)(C)CC(F)(F)F)sc1-c1ccc(N)nc1
Cmax [9]: 59 µM | Cmax [10]: 12 µM | logD [1]: 3.4 | clearance [11]: 58 mL/min/kg | AUC [12]: 514 µM·h | Papp A→B [2]: 41 ×10⁻⁶ cm/s | AUC [14]: 208 µM·h | Cmax [15]: 0.5 µM

SMILES: COc1ccc(-c2c(C)nn3c(NCCN4CCOCC4)cc(C)nc23)cc1OC
Cmax [9]: 52 µM | Cmax [10]: 15 µM | AUC [3]: 10 µM·h | logD [1]: 2.7 | Cmax [4]: 2 µM | AUC [12]: 45 µM·h | Papp A→B [2]: 11 ×10⁻⁶ cm/s | bioavailability [5]: 91% | AUC [13]: 307 µM·h | AUC [14]: 3.6 µM·h | Cmax [15]: 1.9 µM | half-life [6]: 2.8 h | clearance [7]: 18 mL/min/kg

Other lines, results leading:

logD [1]: 2.9 | Papp A→B [2]: 11.3 ×10⁻⁶ cm/s
SMILES: Nc1ccc(-c2cnc(NC(=O)CN(Cc3ccccc3)C(=O)c3ccncc3)s2)cc1

logD [1]: 2.6 | Papp A→B [2]: 2.3 ×10⁻⁶ cm/s
SMILES: Nc1ccc(-c2cnc(NC(=O)CN(Cc3ccccc3)C(=O)c3ccncc3)s2)cn1

logD [1]: 2.8 | Papp A→B [2]: 2.1 ×10⁻⁶ cm/s
SMILES: Cc1nc(NC(=O)CN(Cc2ccccc2)C(=O)c2ccncc2)sc1-c1ccc(N)nc1

logD [1]: 3.2 | Papp A→B [2]: 21 ×10⁻⁶ cm/s
SMILES: CC(=O)N1[C@@H](c2ccccc2)CC[C@H]1C(=O)Nc1ncc(-c2ccc(N)cc2)s1

AUC [3]: 9.7 µM·h | logD [1]: 2.9 | Cmax [4]: 1.9 µM | Papp A→B [2]: 20 ×10⁻⁶ cm/s | F [8]: 160% | half-life [6]: 1.7 h | clearance [7]: 40 mL/min/kg
SMILES: Cc1nc(NC(=O)C(C)CC(F)(F)F)sc1-c1ccc(N)nc1 (stereo not given)

logD [1]: 4 | Papp A→B [2]: 26 ×10⁻⁶ cm/s
SMILES: Cc1nc(NC(=O)Cc2nc(-c3ccccc3)c(C)o2)sc1-c1ccc(N)nc1

Cmax [9]: 55 µM | Cmax [10]: 18 µM | logD [1]: 3.2 | clearance [11]: 91 mL/min/kg | AUC [12]: 44 µM·h | Papp A→B [2]: 44 ×10⁻⁶ cm/s | AUC [13]: 176 µM·h | AUC [14]: 2.7 µM·h | Cmax [15]: 1.8 µM
SMILES: Cc1nc(NC(=O)[C@H](C)CC(F)(F)F)sc1-c1ccc(N)nc1

Cmax [9]: 26 µM | Cmax [10]: 20 µM | logD [1]: 3.2 | clearance [11]: 71 mL/min/kg | AUC [12]: 38 µM·h | Papp A→B [2]: 42 ×10⁻⁶ cm/s | AUC [13]: 12 µM·h | AUC [14]: 4 µM·h | Cmax [15]: 2.2 µM
SMILES: Cc1nc(NC(=O)[C@@H](C)CC(F)(F)F)sc1-c1ccc(N)nc1
